Data reported in ChEMBL document CHEMBL3608254, “Discovery of novel triazolobenzazepinones as γ-secretase modulators with central Aβ42 lowering in rodents and rhesus monkeys” (Bioorg Med Chem Lett, 2015).
Converted amounts (≈) assume the structure as drawn. The source made the active and inactive calls. No cut-off for these calls is given here.

How the values were obtained:
[1] = Lipophilicity, log D of the compound; assay type: physicochemical; settings: octanol/water
[2] = Plasma clearance in dog at 0.25 mg/kg, iv and 0.5 mg/kg, po; assay type: ADME, organism-based, Canis lupus familiaris
[3] = Half life in rhesus monkey hepatocytes; assay type: ADME, cell-based, Macaca mulatta, Hepatocyte
[4] = target: T1, Voltage-gated inwardly rectifying potassium channel KCNH2 (Homo sapiens, UniProt Q12809); experiment: Inhibition of human ERG expressed in HEK cells assessed as reduction in IKr current by patchXpress assay; assay type: cell-based, HEK293
[5] = tested on: Rattus norvegicus; experiment: Antialzheimer's disease activity in po dosed Sprague-Dawley rat assessed as reduction of amyloid beta-40/42 level in brain measured after 6 hrs; assay type: functional
[6] = Fraction unbound in rhesus monkey; assay type: ADME, organism-based, Macaca mulatta; settings: in vivo
[7] = Solubility of the compound at pH 7; assay type: physicochemical; settings: buffer
[8] = tested on: Rattus norvegicus; experiment: Antialzheimer's disease activity in Sprague-Dawley rat assessed as reduction of amyloid beta-42 level in brain at 100 mg/kg, po after 6 hrs relative to control; assay type: functional
[9] = Plasma clearance in Sprague-Dawley rat at 1 mg/kg, iv and 2 mg/kg, po; assay type: ADME, organism-based
[10] = tested on: Rattus norvegicus; experiment: Dose normalized AUC (0 to 24 hrs) in Sprague-Dawley rat at 2 mg/kg, po; assay type: ADME, organism-based; settings: in vivo
[11] = target: CYP2D6 (Homo sapiens, UniProt P10635); experiment: Inhibition of CYP2D6 (unknown origin) at 10 uM; assay type: ADME
[12] = tested on: Rhesus monkey; experiment: Antialzheimer's disease activity in rhesus monkey cisterna-magna-ported model assessed as reduction of amyloid beta-40 level in CSF at 6 mg/kg bolus dose followed by 4 hrs infusion of 44 mg/kg, iv measured up to 20 hrs; assay type: functional, organism-based; settings: Macaca mulatta
[13] = target: T1, Voltage-gated inwardly rectifying potassium channel KCNH2
Description: Binding affinity to human ERG expressed in HEK cells by MK-499 radioligand displacement assay

[14] = tested on: Canis familiaris; experiment: Dose normalized AUC (0 to 24 hrs) in dog at 0.5 mg/kg, po; assay type: ADME, organism-based, Canis lupus familiaris; settings: in vivo
[15] = Half life in rat hepatocytes; assay type: ADME, cell-based, Hepatocyte
[16] = Drug level in Sprague-Dawley rat brain at 100 mg/kg, po after 6 hrs; assay type: ADME, organism-based; settings: read-out: Drug uptake
[17] = Half life in dog at 0.25 mg/kg, iv; assay type: ADME, organism-based, Canis lupus familiaris; settings: in vivo
[18] = tested on: Rattus norvegicus; experiment: Dose normalized AUC in Wistar-Han rat at 100 mg/kg, po; assay type: ADME, organism-based; settings: in vivo
[19] = Volume of distribution at steady state in Sprague-Dawley rat at 1 mg/kg, iv and 2 mg/kg, po; assay type: ADME, organism-based; settings: in vivo, read-out: Vdss
[20] = Solubility of the compound at pH 2; assay type: physicochemical; settings: buffer
[21] = tested on: Rhesus monkey; experiment: Antialzheimer's disease activity in rhesus monkey cisterna-magna-ported model assessed as reduction of amyloid beta-42 level in CSF at 6 mg/kg bolus dose followed by 4 hrs infusion of 44 mg/kg, iv measured up to 20 hrs; assay type: functional, organism-based; settings: Macaca mulatta
[22] = Half life in Sprague-Dawley rat at 1 mg/kg, iv; assay type: ADME, organism-based; settings: in vivo
[23] = tested on: Rattus norvegicus; experiment: Oral bioavailability in Sprague-Dawley rat at 2 mg/kg; assay type: ADME, organism-based; settings: in vivo
[24] = Half life in rhesus monkey at 0.25 mg/kg, iv; assay type: ADME, organism-based, Macaca mulatta; settings: in vivo
[25] = target: Sodium-dependent serotonin transporter (Homo sapiens, UniProt P31645); experiment: Inhibition of SERT (unknown origin)
[26] = Fraction unbound in human; assay type: ADME, organism-based; settings: in vivo
[27] = Oral bioavailability in rhesus monkey at 0.5 mg/kg; assay type: ADME, organism-based, Macaca mulatta; settings: in vivo
[28] = Half life in human hepatocytes; assay type: ADME, cell-based, Hepatocyte
[29] = Fraction unbound in dog; assay type: ADME, organism-based, Canis lupus familiaris; settings: in vivo
[30] = target: T2, Nuclear receptor subfamily 1 group I member 2 (Homo sapiens, UniProt O75469); experiment: Activation of PXR (unknown origin); assay type: ADME
T2 sequence (O75469 whole entry): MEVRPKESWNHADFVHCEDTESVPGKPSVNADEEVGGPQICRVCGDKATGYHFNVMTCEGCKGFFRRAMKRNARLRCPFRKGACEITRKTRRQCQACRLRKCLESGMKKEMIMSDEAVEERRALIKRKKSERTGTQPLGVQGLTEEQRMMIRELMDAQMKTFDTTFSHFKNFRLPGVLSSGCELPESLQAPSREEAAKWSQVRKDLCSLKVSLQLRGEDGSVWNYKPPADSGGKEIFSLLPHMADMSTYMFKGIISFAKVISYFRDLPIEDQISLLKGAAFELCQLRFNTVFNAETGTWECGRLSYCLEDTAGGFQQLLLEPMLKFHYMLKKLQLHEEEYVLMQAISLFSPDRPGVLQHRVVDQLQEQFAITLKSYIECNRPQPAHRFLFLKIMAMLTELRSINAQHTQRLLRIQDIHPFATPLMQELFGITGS

[31] = Apparent permeability of the compound in pig LLC-PK1 cells; assay type: ADME, cell-based, Sus scrofa
[32] = Volume of distribution at steady state in dog at 0.25 mg/kg, iv and 0.5 mg/kg, po; assay type: ADME, organism-based, Canis lupus familiaris; settings: in vivo, read-out: Vdss
[33] = Fraction unbound in rat; assay type: ADME, organism-based; settings: in vivo
[34] = target: CYP2C9 (Homo sapiens, UniProt P11712); experiment: Inhibition of CYP2C9 (unknown origin) at 10 uM; assay type: ADME
[35] = Inhibition of gamma-secretase-mediated cleavage of NotchdeltaE in human HeLa cells expressing NotchdeltaE assessed as intracellular release of Notch intracellular domain (NICD)/N-terminal luciferase by luminescent method; assay type: cell-based
[36] = Oral bioavailability in dog at 0.5 mg/kg; assay type: ADME, organism-based, Canis lupus familiaris; settings: in vivo
[37] = target: T3, CYP3A4 (Homo sapiens, UniProt P08684); experiment: Inhibition of CYP3A4 (unknown origin) at 10 uM; assay type: ADME
[38] = AUC in cerebrospinal fluid of rhesus monkey cisterna-magna-ported model at 6 mg/kg bolus dose followed by 4 hrs infusion of 44 mg/kg, iv; assay type: ADME, organism-based, Macaca mulatta
[39] = tested on: Mus musculus; experiment: Antialzheimer's disease activity in po dosed APP-YAC transgenic mouse assessed as reduction of amyloid beta-40/42 level in brain measured after 6 hrs; assay type: functional
[40] = Half life in dog hepatocytes; assay type: ADME, cell-based, Canis lupus familiaris, Hepatocyte
[41] = target: T3, CYP3A4; experiment: Time dependent inhibition of CYP3A4 (unknown origin) at 50 uM; assay type: ADME
[42] = tested on: Plasma; experiment: AUC in plasma of rhesus monkey cisterna-magna-ported model at 6 mg/kg bolus dose followed by 4 hrs infusion of 44 mg/kg, iv; assay type: ADME, organism-based, Macaca mulatta; settings: in vivo
[43] = Volume of distribution at steady state in rhesus monkey at 0.25 mg/kg, iv and 0.5 mg/kg, po; assay type: ADME, organism-based, Macaca mulatta; settings: in vivo, read-out: Vdss

T1 sequence (Q12809 whole entry): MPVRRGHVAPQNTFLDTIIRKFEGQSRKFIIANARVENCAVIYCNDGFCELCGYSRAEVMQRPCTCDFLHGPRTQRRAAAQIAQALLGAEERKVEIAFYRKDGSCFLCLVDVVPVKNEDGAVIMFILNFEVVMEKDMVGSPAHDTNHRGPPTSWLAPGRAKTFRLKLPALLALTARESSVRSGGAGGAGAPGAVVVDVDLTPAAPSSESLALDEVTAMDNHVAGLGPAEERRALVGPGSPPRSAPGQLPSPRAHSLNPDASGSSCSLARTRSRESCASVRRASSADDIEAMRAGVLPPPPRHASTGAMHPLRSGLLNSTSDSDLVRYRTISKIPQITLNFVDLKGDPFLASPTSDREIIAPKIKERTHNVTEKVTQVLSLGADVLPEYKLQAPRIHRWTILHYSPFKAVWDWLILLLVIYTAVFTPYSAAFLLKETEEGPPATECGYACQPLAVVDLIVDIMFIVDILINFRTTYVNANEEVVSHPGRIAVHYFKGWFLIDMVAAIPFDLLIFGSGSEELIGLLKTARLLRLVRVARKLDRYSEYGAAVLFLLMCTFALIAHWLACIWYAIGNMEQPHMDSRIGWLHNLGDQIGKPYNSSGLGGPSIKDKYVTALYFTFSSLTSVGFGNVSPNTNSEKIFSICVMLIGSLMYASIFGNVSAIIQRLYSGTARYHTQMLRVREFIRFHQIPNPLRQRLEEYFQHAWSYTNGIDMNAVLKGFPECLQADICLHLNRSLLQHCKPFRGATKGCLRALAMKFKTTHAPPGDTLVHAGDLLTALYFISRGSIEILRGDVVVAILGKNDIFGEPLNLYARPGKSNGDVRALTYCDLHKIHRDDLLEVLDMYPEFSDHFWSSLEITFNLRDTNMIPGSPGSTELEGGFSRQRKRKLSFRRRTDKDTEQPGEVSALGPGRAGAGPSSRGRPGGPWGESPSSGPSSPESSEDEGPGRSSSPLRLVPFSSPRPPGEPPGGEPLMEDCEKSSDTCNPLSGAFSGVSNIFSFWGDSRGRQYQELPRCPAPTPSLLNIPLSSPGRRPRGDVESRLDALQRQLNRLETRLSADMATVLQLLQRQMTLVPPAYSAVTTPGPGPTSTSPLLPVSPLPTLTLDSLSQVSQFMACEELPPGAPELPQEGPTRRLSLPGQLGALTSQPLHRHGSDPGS
T3 sequence (P08684 whole entry, the tested form may be a part): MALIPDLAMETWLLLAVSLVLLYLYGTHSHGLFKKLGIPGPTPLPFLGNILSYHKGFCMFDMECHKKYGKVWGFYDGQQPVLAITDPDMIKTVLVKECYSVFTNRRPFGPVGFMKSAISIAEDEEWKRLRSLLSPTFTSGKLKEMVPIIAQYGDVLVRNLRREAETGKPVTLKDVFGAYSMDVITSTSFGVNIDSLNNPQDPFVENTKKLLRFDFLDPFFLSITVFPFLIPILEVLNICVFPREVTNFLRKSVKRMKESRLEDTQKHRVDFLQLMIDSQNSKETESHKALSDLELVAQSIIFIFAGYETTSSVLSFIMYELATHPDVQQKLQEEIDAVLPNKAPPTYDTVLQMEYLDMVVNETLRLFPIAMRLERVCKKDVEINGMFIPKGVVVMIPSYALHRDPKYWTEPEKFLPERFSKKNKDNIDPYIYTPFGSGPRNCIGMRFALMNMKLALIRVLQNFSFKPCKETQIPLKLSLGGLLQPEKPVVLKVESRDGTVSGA
Chain of CYP2D6 (P10635 whole entry, the tested form may be a part): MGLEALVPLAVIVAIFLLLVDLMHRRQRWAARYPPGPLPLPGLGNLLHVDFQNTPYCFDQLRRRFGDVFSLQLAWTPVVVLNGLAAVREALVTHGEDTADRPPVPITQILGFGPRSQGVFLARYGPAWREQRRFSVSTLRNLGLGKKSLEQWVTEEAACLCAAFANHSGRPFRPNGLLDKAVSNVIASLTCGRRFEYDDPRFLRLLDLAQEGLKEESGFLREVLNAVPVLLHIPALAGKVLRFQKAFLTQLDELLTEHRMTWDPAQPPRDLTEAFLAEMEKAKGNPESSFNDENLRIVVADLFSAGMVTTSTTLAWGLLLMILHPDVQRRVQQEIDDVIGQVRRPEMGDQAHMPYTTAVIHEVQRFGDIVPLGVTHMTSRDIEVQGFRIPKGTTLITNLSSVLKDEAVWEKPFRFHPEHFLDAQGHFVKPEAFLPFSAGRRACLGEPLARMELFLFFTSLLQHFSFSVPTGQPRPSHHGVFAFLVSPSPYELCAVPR
Chain of CYP2C9 (P11712 whole entry, the tested form may be a part): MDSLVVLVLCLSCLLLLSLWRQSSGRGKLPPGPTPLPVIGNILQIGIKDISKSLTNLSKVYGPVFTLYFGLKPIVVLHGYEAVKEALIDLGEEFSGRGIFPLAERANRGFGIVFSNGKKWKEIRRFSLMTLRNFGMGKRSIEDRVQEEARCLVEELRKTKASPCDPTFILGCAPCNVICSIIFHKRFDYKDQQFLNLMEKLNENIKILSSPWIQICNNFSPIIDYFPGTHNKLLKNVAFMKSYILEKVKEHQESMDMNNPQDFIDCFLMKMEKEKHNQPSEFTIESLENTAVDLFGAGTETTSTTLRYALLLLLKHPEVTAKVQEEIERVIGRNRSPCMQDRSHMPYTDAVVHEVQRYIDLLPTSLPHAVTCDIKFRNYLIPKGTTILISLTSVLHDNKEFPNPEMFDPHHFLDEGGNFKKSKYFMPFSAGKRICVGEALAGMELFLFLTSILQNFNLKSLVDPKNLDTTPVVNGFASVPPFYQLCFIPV
Chain of Sodium-dependent serotonin transporter (P31645 whole entry): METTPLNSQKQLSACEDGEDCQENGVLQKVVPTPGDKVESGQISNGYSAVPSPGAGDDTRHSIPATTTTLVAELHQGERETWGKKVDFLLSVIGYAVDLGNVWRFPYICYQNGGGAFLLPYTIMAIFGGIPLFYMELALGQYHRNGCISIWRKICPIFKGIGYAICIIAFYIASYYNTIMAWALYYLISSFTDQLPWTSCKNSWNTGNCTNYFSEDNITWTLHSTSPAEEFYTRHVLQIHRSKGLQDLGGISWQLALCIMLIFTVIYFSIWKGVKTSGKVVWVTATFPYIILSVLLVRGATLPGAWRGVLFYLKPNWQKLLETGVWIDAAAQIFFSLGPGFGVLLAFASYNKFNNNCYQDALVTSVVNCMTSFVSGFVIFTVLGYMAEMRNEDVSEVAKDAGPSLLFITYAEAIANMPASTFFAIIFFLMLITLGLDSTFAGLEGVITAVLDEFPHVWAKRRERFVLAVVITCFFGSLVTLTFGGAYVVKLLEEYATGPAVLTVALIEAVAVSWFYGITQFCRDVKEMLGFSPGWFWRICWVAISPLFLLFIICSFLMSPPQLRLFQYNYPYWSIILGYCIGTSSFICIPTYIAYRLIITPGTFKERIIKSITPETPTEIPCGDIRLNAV

**Q.** Which logD [1] does the source give for `COc1cc(-c2cn(C3CCc4c(F)cccc4N(CC(F)(F)F)C3=O)nn2)ccc1-n1cnc(C)c1` (stereo not drawn) [GSM1] here?
**A.** Its logD is 3.3.

**Q.** And the clearance [2]?
**A.** The clearance was 82 mL/min/kg.

**Q.** And the half-life [3]?
**A.** Its half-life is 0.817 h.

**Q.** And the IC50 [4]?
**A.** Its IC50 is 12.9 µM.

**Q.** What about the ED50 [5] of the same compound?
**A.** Its ED50 is 15 mg/kg.

**Q.** What about the fraction unbound [6] of the same compound?
**A.** Its fraction unbound is 0.057.

**Q.** What about the solubility [7] of the same compound?
**A.** Its solubility is 5.6 µM (≈ 2.88 µg/mL).

**Q.** And the inhibition in vivo at 100 mg/kg [8]?
**A.** Its inhibition in vivo at 100 mg/kg is 92%.

**Q.** And the clearance [9]?
**A.** The clearance was 38 mL/min/kg.

**Q.** What about the AUCt/dose [10] of the same compound?
**A.** Its AUCt/dose is 1.6 µM·kg·h/mg.

**Q.** And the inhibition at 10 µM [11]?
**A.** The inhibition at 10 µM was 28%.

**Q.** What about the Activity [12] of the same compound?
**A.** The Activity was “inactive”.

**Q.** What about the IC50 [13] of the same compound?
**A.** The IC50 was 2.61 µM.

**Q.** And the AUCt/dose [14]?
**A.** Its AUCt/dose is 0.1 µM·kg·h/mg.

**Q.** And the half-life [15]?
**A.** The half-life was 0.6 h.

**Q.** What about the concentration at 6 h [16] of the same compound?
**A.** Its concentration at 6 h is 35 µM.

**Q.** And the half-life [17]?
**A.** Its half-life is 6.2 h.

**Q.** And the AUC/dose [18]?
**A.** The AUC/dose was 8.8 µM·kg·h/mg.

**Q.** And the Vd [19]?
**A.** The Vd was 4.8 L/kg.

**Q.** What about the solubility [20] of the same compound?
**A.** Its solubility is 180 µM (≈ 92.6 µg/mL).

**Q.** And the Activity [21]?
**A.** Its Activity is “Active”.

**Q.** What about the half-life [22] of the same compound?
**A.** The half-life was 0.8 h.

**Q.** What about the F [23] of the same compound?
**A.** Its F is 190%.

**Q.** What about the half-life [24] of the same compound?
**A.** The half-life was 1.2 h.

**Q.** What about the IC50 [25] of the same compound?
**A.** The IC50 was 0.032 µM.

**Q.** And the fraction unbound [26]?
**A.** Its fraction unbound is 0.036.

**Q.** And the bioavailability [27]?
**A.** The bioavailability was under 5%.

**Q.** What about the half-life [28] of the same compound?
**A.** The half-life was 1.02 h.

**Q.** And the fraction unbound [29]?
**A.** The fraction unbound was 0.058.

**Q.** And the EC50 [30]?
**A.** Its EC50 is over 30 µM.

**Q.** And the Papp [31]?
**A.** Its Papp is 25 ×10⁻⁶ cm/s.

**Q.** And the Vd [32]?
**A.** The Vd was 14 L/kg.

**Q.** And the fraction unbound [33]?
**A.** Its fraction unbound is 0.037.

**Q.** And the inhibition at 10 µM [34]?
**A.** The inhibition at 10 µM was 68%.

**Q.** And the IC50 [35]?
**A.** The IC50 was 39.8 µM.

**Q.** What about the bioavailability [36] of the same compound?
**A.** The bioavailability was under 5%.

**Q.** And the inhibition at 10 µM [37]?
**A.** The inhibition at 10 µM was 42%.

**Q.** What about the AUC at 4 h [38] of the same compound?
**A.** Its AUC at 4 h is 2.2 µM·h.

**Q.** What about the ED50 [39] of the same compound?
**A.** The ED50 was 15 mg/kg.

**Q.** And the half-life [40]?
**A.** The half-life was 1.12 h.

**Q.** And the inhibition at 50 µM [41]?
**A.** The inhibition at 50 µM was 18%.

**Q.** And the AUC [42]?
**A.** Its AUC is 183 µM·h.

**Q.** And the Vd [43]?
**A.** The Vd was 2 L/kg.
